Key:
Assay in all cases: Study of antimicrobial activity in the presence of proteins (MIC)
Assay type in all cases: cell-based
[1] = tested on: Pseudonas aeruginosa (NBRC12689)
Description: (§1) GOT (glutamic-oxaloacetic transaminase) solution: GOT Substrate-Enzyme solution and GOT-2α•KG solution which were components of L type Wako GOT•J2 kit (produced by Wako Pure Chemical Industries, Ltd.) were prepared with distilled water so as to become a 0.2 w/w % aqueous solution.
(§2) GPT (glutamic-pyruvic transaminase) solution: GOT Substrate-Enzyme solution and GOT•2α-KG solution which were components of L type Wako GPT•J2 kit (produced by Wako Pure Chemical Industries, Ltd.) were prepared with distilled water so as to become a 0.2 w/w % aqueous solution.
(§3) Serum: Control Serum II Wako (produced by Wako Pure Chemical Industries, Ltd.) was prepared with distilled water so as to become a 0.2 w/w % aqueous solution with distilled water.
(§4) In a sterilized petri dish having a diameter of 90 mm, an aqueous solution which was obtained by diluting each of agents with distilled water was added such that a concentration of the agent become each predetermined concentrations when the solution is prepared to a total volume of 20 mL, and the agent aqueous solution and a reagent solution such that a final concentration of each of components (GOT, GPT, and serum) in the reagent become 100 μg/mL when the solution is prepared to a total volume of 20 mL. And then, sterilized water was added into the petri dish such that a total volume of sterilized water and the agent aqueous solution become 2 mL. Further, 18 mL of nutrient agar medium, which was sterilized with high pressure steam and preserved at 50° C.±2° C., was added into the petri dish, and it was solidified to obtain an agar plate medium. Furthermore, as a reference, agar plate medium obtained by using pure water instead of the agent solution was also prepared.
(§5) The individual test microorganisms, which was preliminarily cultured in bouillon medium in advance until 1×10^8 microorganisms/mL, was diluted with sterilized physiological saline for 100 times (to 1×10^6 microorganisms/mL). Next, the prepared solution of the test microorganisms was smeared with a platinum loop on the surface of the agar plate medium prepared in (2), and the medium was cultured at 35° C.±2° C. for 24 hours.
(§6) After the cultivation, confirming the presence or not of the growth of the microorganism on the surface of the medium was conducted, a minimum concentration of the agent, where growth of the microorganisms cannot be recognized, was determine as the minimum inhibitory concentration (MIC, μg/mL) of the agent.

[2] = tested on: Staphylococcus aureus (NBRC12732)
Description: as §1, §2, §3, §4, §5, §6

[3] = tested on: Escherichia coli (NBRC3972)
Description: as §1, §2, §3, §4, §5, §6

[4] = tested on: Bacillus subtilis (NBRC13719)
Description: as §1, §2, §3, §4, §5, §6

Compound	Minimum Inhibitory Concentration P.a ([1]; GOT 100 μg/mL)	Minimum Inhibitory Concentration P.a ([1]; GPT 100 μg/mL)	Minimum Inhibitory Concentration P.a ([1]; Pure Water)	Minimum Inhibitory Concentration P.a ([1]; Serum 100 μg/mL)	Minimum Inhibitory Concentration S.a ([2]; GOT 100 μg/mL)	Minimum Inhibitory Concentration S.a ([2]; GPT 100 μg/mL)	Minimum Inhibitory Concentration S.a ([2]; Pure Water)	Minimum Inhibitory Concentration S.a ([2]; Serum 100 μg/mL)	Minimum Inhibitory Concentration E.c ([3]; GOT 100 μg/mL)	Minimum Inhibitory Concentration E.c ([3]; GPT 100 μg/mL)	Minimum Inhibitory Concentration E.c ([3]; Pure Water)	Minimum Inhibitory Concentration E.c ([3]; Serum 100 μg/mL)	Minimum Inhibitory Concentration B.s ([4]; GOT 100 μg/mL)	Minimum Inhibitory Concentration B.s ([4]; GPT 100 μg/mL)	Minimum Inhibitory Concentration B.s ([4]; Pure Water)	Minimum Inhibitory Concentration B.s ([4]; Serum 100 μg/mL)
CCCCCCCCCCCCN(CCCN)CCCN [TAA, N-bis(3-aminopropyl)dodecylamine]	100 µg/mL	100 µg/mL	10 µg/mL	100 µg/mL	10 µg/mL	10 µg/mL	10 µg/mL	10 µg/mL	50 µg/mL	50 µg/mL	50 µg/mL	50 µg/mL	10 µg/mL	10 µg/mL	10 µg/mL	10 µg/mL
Didecyldimethylammonium adipate [DDAA]	200 µg/mL	200 µg/mL	200 µg/mL	200 µg/mL	<1 µg/mL	<1 µg/mL	<1 µg/mL	<1 µg/mL	50 µg/mL	50 µg/mL	50 µg/mL	50 µg/mL	<1 µg/mL	<1 µg/mL	<1 µg/mL	<1 µg/mL
benzalkonium chloride [BC, reference compound]	>200 µg/mL	>200 µg/mL	>200 µg/mL	>200 µg/mL	<1 µg/mL	50 µg/mL	<1 µg/mL	<1 µg/mL	200 µg/mL	200 µg/mL	100 µg/mL	200 µg/mL	10 µg/mL	10 µg/mL	10 µg/mL	10 µg/mL

From patent US7727949B2, “Cleaning agent for thermostatic chambers” (Wako Pure Chemical Industries, Ltd., priority 2005, dated 2010)
